Here are results for five compounds from patent US20110118283A1, “Substituted Pyrrolidine-2-Carboxamides” (priority 2009, published 2011).

The target of this experiment is MDM2 (Homo sapiens, UniProt Q00987). Briefly: HTRF assay of inhibition of the p53-MDM2 interaction. Conditions: GST-MDM2 / biotinylated p53 peptide, bsa 0.02%. Type of experiment: binding. The procedure: The ability of the compounds to inhibit the interaction between p53 and MDM2 proteins was measured by an HTRF (homogeneous time-resolved fluorescence) assay in which recombinant GST-tagged MDM2 binds to a peptide that resembles the MDM2-interacting region of p53 (Lane et al.). Binding of GST-MDM2 protein and p53-peptide (biotinylated on its N-terminal end) is registered by the FRET (fluorescence resonance energy transfer) between Europium (Eu)-labeled anti-GST antibody and streptavidin-conjugated Allophycocyanin (APC).
Chain of MDM2 (Q00987 whole entry, species assumed): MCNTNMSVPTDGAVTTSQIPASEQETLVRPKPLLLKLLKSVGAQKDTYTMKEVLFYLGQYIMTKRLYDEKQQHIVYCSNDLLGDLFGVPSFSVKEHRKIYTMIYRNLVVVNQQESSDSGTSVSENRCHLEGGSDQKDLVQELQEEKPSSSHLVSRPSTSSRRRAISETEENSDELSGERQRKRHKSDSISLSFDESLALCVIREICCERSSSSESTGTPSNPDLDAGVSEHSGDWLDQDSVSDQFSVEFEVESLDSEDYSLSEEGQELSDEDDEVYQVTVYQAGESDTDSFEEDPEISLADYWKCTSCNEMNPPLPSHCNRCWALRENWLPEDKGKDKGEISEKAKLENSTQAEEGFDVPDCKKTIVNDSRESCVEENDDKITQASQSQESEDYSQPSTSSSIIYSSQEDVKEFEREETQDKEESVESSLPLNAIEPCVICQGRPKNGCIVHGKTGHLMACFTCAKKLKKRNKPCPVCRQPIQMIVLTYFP
[…] Add 10 uL diluted compounds (1:5 dilution in reaction buffer) to each well, mix by shaking. Add 20 uL biotinylated p53 peptide (180 nM working solution) in reaction buffer to each well and mix on shaker. Incubate at 37° C. for 1 h. Add 20 uL streptavidin-APC and Eu-anti-GST antibody mixture (6 nM Eu-anti-GST and 60 nM streptavidin-APC working solution) in TBS buffer with 0.2% BSA, shake at room temperature for 30 minutes and read using a TRF-capable plate reader at 665 and 615 nm (Victor 5, Perkin ElmerWallac). If not specified, the reagents were purchased from Sigma Chemical Co.
On the technique in general: In TR-FRET formats the signal depends on donor and acceptor labels being close together.
With `CC(C)(C)C[C@@H]1N[C@@H](C(=O)NCC[C@H](O)CO)[C@H](c2cccc(Cl)c2)[C@@]1(C#N)c1ccc(Cl)nc1` (mixture of isomers) [Example 44, rac-(2R,3R,4R,5S)-3-(3-chloro-phenyl)-4-(6-chloro-pyridin-3-yl)-4-cyano-5-(2,2-dimethyl-propyl)-pyrrolidine-2-carboxylic acid ((S)-3,4-dihydroxy-butyl)-amide], inhibition was half-maximal at 61 nM (IC50).
Regarding `CC(C)(C)C[C@@H]1N[C@@H](C(=O)NCC[C@H](O)CO)[C@H](c2cccc(Cl)c2)[C@@]1(C#N)c1cccnc1` (mixture of isomers) [Example 39, rac-(2R,3R,4R,5S)-3-(3-chloro-phenyl)-4-cyano-5-(2,2-dimethyl-propyl)-4-pyridin-3-yl-pyrrolidine-2-carboxylic acid ((S)-3,4-dihydroxy-butyl)-amide], it took 1970 nM to reach half-maximal inhibition (IC50).
The figure for `COC(=O)c1ccc(NC(=O)[C@@H]2N[C@@H](CC(C)(C)C)[C@](C#N)(c3ccc(Br)cn3)[C@H]2c2cccc(Cl)c2F)cc1` (racemic) [Example 34, rac-4-{[(2R,3S,4S,5S)-4-(5-bromo-pyridin-2-yl)-3-(3-chloro-2-fluoro-phenyl)-4-cyano-5-(2,2-dimethyl-propyl)-pyrrolidine-2-carbonyl]-amino}-benzoic acid methyl ester] is 201 nM.
For the compound `CC(C)(C)C[C@@H]1N[C@@H](C(=O)NCC[C@H](O)CO)[C@H](c2cccc(Cl)c2F)[C@@]1(C#N)c1ncc(Cl)cc1F` (mixture of isomers) [Example 25, rac-(2R,3S,4S,5S)-3-(3-chloro-2-fluoro-phenyl)-4-(5-chloro-3-fluoro-pyridin-2-yl)-4-cyano-5-(2,2-dimethyl-propyl)-pyrrolidine-2-carboxylic acid ((S)-3,4-dihydroxy-butyl)-amide], the 50% inhibitory concentration (IC50) (usually the point on the concentration scale where inhibition reaches its midpoint) worked out at 1230 nM.
As to `CC(C)(C)C[C@@H]1N[C@@H](C(=O)NCC[C@H](O)CO)[C@H](c2cccc(Cl)c2)[C@@]1(C#N)c1cc(Br)cs1` (mixture of isomers) [Example 7, rac-(2R,3R,4R,5S)-4-(4-bromo-thiophen-2-yl)-3-(3-chloro-phenyl)-4-cyano-5-(2,2-dimethyl-propyl)-pyrrolidine-2-carboxylic acid ((S)-3,4-dihydroxy-butyl)-amide], the IC50 came out at 5860 nM.
